This note sets out measurements from US10604512B2, “3-(1H-indol-2-yl)-1H-indazoles and therapeutic uses thereof” (Samumed, LLC, priority 2015, dated 2020).

A value given as a limit tells only on which side of the number the result lay.

What all share (assay type): cell-based
The subject of assay [1] is SW480 colon cancer cells. The experiment in a line: Cell viability assay (CellTiter-Blue) in SW480 colon cancer cells. Particulars: Homo sapiens, 96 h, four days; for inhibition at 10 µM: given where EC50 >10 μM, read-out: percent inhibition at 10 μM; for EC50: CellTiter-Blue. In a few lines:
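4-day exposure, 37 °C/5% CO2; ~2×10^3 SW480 cells/well; 8-pt 1:3 curve, 10–0.0045 μM, duplicates vs DMSO controls. Resazurin→resorufin fluorescence readout, ~3 h. EC50 by nonlinear fit; if >10 μM, % inhibition at 10 μM reported.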

The subject of assay [2] is Primary human fibroblasts derived from IPF patients (LL29 cells) treated with TGF-β1. Put plainly: Inhibition of the fibrotic process: αSMA staining in TGF-β1-treated primary human fibroblasts from IPF patients (LL29 cells). As to conditions: Fibroblast, 96 h; for EC50: % αSMA-positive LL29 cells, TGF-β1 20 ng/mL, 4 days. The gist of the method:
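LL29 IPF-patient fibroblasts in 1% FBS stimulated with TGF-β1 (20 ng/mL) and compound (10 μM–1.87 nM, 0.1% DMSO) for 4 days at 37 °C. SYTOX-positive cells excluded; % αSMA-positive cells imaged, normalized to TGF-β1/DMSO wells; EC50 by nonlinear regression, else % inhibition at 10 μM.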

Assay [3] deals with Wnt activity (Sp5-Luc reporter, TCF/LEF binding sites) in SW480 colon carcinoma cells. The experiment in a line: Screening assay for Wnt activity: Sp5-Luc reporter gene assay in stably transduced SW480 colon carcinoma cells. As to conditions: Homo sapiens, overnight incubation, 10-point curve from 10 μM. The gist of the method: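 SW480 cells stably transduced with a luciferase reporter driven by an Sp5 promoter of eight TCF/LEF sites were plated at 4,000 cells/well in 1% FBS medium. They were exposed overnight at 37° C to a 10-point 1:3 dilution series from 10 μM (0.1% DMSO). Luminescence was normalized to DMSO for four-parameter EC50, or percent inhibition at 10 μM.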

In the case of `Fc1cccc(-c2cccc3[nH]c(-c4n[nH]c5ccc(-c6ccncc6)cc45)cc23)c1` [Compound 18, 3-(4-(3-Fluorophenyl)-1H-indol-2-yl)-5-(pyridin-4-yl)-1H-indazole], the inhibition at 10 µM in assay [1] came to 10.2%. The EC50 in assay [1] is over 10000 nM; in assay [2] it was 5550 nM; in assay [3], 4620 nM.

Take `CC(C)(C)CC(=O)Nc1cncc(-c2ccc3[nH]nc(-c4cc5c(-c6ccsc6)cccc5[nH]4)c3c2)c1` [Compound 296, 3,3-Dimethyl-N-(5-(3-(4-(thiophen-3-yl)-1H-indol-2-yl)-1H-indazol-5-yl)pyridin-3-yl)butanamide]: the EC50 in assay [1] is 970 nM; in assay [2], over 10000 nM; in assay [3], 455 nM. Besides, in assay [2] (at 10 μM, given where EC50 >10 μM, αSMA, LL29 cells, TGF-β1, 4 days, read-out: percent inhibition at 10 μM), the inhibition at 10 µM amounted to 21%.

Consider `O=C(Nc1cncc(-c2ccc3[nH]nc(-c4cc5c(-c6ccsc6)cccc5[nH]4)c3c2)c1)C1CCCCC1` [Compound 303, N-(5-(3-(4-(Thiophen-3-yl)-1H-indol-2-yl)-1H-indazol-5-yl)pyridin-3-yl) cyclohexanecarboxamide], for which the inhibition at 10 µM in assay [1] amounted to 15%. For the same compound, the EC50 in assay [1] was over 10000 nM; in assay [2] it was 2790 nM; in assay [3] it was 1150 nM.

With `Nc1cncc(-c2ccc3[nH]nc(-c4cc5c(-c6ccoc6)cccc5[nH]4)c3c2)c1` [Compound 311, 5-(3-(4-(Furan-3-yl)-1H-indol-2-yl)-1H-indazol-5-yl)pyridin-3-amine], the EC50 in assay [1] worked out at 294 nM; in assay [2], 5040 nM; in assay [3] it was 40 nM.

Regarding `O=C(Cc1ccccc1)Nc1cncc(-c2ccc3[nH]nc(-c4cc5c(-c6ccoc6)cccc5[nH]4)c3c2)c1` [Compound 318, N-(5-(3-(4-(Furan-3-yl)-1H-indol-2-yl)-1H-indazol-5-yl)pyridin-3-yl)-2-phenylacetamide], in assay [1], the inhibition at 10 µM was found to be 31.9%. Further, the EC50 in assay [1] was over 10000 nM; in assay [2], 844 nM; in assay [3], 1120 nM.

As for `c1cc(-c2ccoc2)c2cc(-c3n[nH]c4ccc(-c5cncc(CNCC6CCCC6)c5)cc34)[nH]c2c1` [Compound 333, 1-Cyclopentyl-N-((5-(3-(4-(furan-3-yl)-1H-indol-2-yl)-1H-indazol-5-yl)pyridin-3-yl)methyl)methanamine], in assay [1], the inhibition at 10 µM was determined as 19.1%. Moreover, the EC50 was over 10000 nM in assay [1], 3740 nM in assay [2] and 3760 nM in assay [3].
